Experiment [1] concerns Zea mays. As to the kind of experiment: Increase in GST activity in Zea mays (maize) root at 50 uM applied to seeds incubated for 5 days by [14C]acetochlor-based liquid scintillation assay relative to control. Type of experiment: functional.
Experiment [2] has as its system Zea mays. The experiment is described as follows: Increase in GST activity in Zea mays (maize) shoot at 50 uM applied to seeds incubated for 5 days by [14C]acetochlor-based liquid scintillation assay relative to control. Type of experiment: functional.
The subject of experiment [3] is Zea mays. The experiment is described as follows: Effect on GST activity in Zea mays (maize) shoot at 50 uM applied to seeds incubated for 5 days by CDNB-based spectrophotometric analysis relative to control. Type of experiment: functional, organism-based.
The subject of experiment [4] is Zea mays. The experiment is described as follows: Safening activity against acetochlor-induced phytotoxicity against Zea mays (maize) assessed as increase in shoot length at 50 uM applied pre-emergence measured 14 days after treatment relative to acetochlor-treated control. Type of experiment: functional.
Experiment [5] relates to Zea mays. As to the kind of experiment: Decrease in GSH content in Zea mays (maize) root at 50 uM applied to seeds incubated for 5 days by DNTB-based spectrophotometric analysis relative to control. Type of experiment: functional, organism-based.
Experiment [6] concerns Zea mays. As to the kind of experiment: Effect on GSH content in Zea mays (maize) shoot at 50 uM applied to seeds incubated for 5 days by DNTB-based spectrophotometric analysis relative to control. Type of experiment: functional, organism-based.
Experiment [7] has as its system Zea mays. The experiment is described as follows: Increase in GSH content in Zea mays (maize) shoot at 50 uM applied to seeds incubated for 5 days by DNTB-based spectrophotometric analysis relative to control. Type of experiment: functional.
Experiment [8] has as its system Zea mays. The experiment is described as follows: Effect on GST activity in Zea mays (maize) root at 50 uM applied to seeds incubated for 5 days by [14C]acetochlor-based liquid scintillation assay relative to control. The format is functional, organism-based.
Experiment [9] concerns Zea mays. The experiment is described as follows: Increase in GST activity in Zea mays (maize) shoot at 50 uM applied to seeds incubated for 5 days by CDNB-based spectrophotometric analysis relative to control. The format is functional, organism-based.
The test system of experiment [10] is Zea mays. The experiment is described as follows: Increase in GSH content in Zea mays (maize) root at 50 uM applied to seeds incubated for 5 days by DNTB-based spectrophotometric analysis relative to control. The format is functional.
The test system of experiment [11] is Zea mays. The experiment is described as follows: Increase in GST activity in Zea mays (maize) root at 50 uM applied to seeds incubated for 5 days by CDNB-based spectrophotometric analysis relative to control. The format is functional.
Experiment [12] deals with Zea mays. As to the kind of experiment: Decrease in GST activity in Zea mays (maize) root at 50 uM applied to seeds incubated for 5 days by CDNB-based spectrophotometric analysis relative to control. Type of experiment: functional, organism-based.

Activity calls are given as the source filed them. The rule behind the calls is not given here. Where only a bound is given, the exact number is not on record here.

For `C=CCN(CC=C)C(=O)CCl`, the result in experiment [1] and in experiment [2] was Active. In experiment [3], the outcome was inactive.

With `ClC(Cl)C1OCCCO1`, the Activity in [4] is recorded as 24%. Besides, the result in experiment [5] was Active. The outcome in experiment [6] was inactive.

Take `CC1(C(Cl)Cl)OCCCCO1`: the result in experiment [7] and in experiment [9] was Active. Also, the Activity in experiment [4] was 70%. Also, the result in experiment [8] and in experiment [6] was inactive.

Take `CCOC(C)(OCC)C(Cl)Cl`: the outcome in experiment [7], in experiment [6] and in experiment [10] was inactive. For the same molecule, the Activity in [4] is reported as 62%.

As for `C=CCN(CC=C)C(=O)C(Cl)Cl` [DICHLORMID], the “fold change (FC)” value in experiment [7] came out at 1.78; in [10] it was 1.65. Also, in experiment [4], the Activity turned out to be 81%. Besides, the result in experiment [3] was inactive.

In the case of `ClC(Cl)C1OCCO1`, the Activity in experiment [4] is given as 24%. For the same molecule, the outcome in experiment [5] was Active. Further, in experiment [6], the outcome was inactive.

With `CC(C)COC(C)(OCC(C)C)C(Cl)Cl`, the “fold change (FC)” value in [2] turned out to be 4.72. In addition, the result in [6] was inactive.

With `ClC(Cl)C1OCCCCO1`, the Activity in experiment [4] amounted to 24%. For the same molecule, the outcome in experiment [5] was Active. The result in [6] was inactive.

Turning to `CC1(C(Cl)Cl)OCCCCCCO1`, the result in [7], in [4] and in experiment [9] was Active. In addition, the outcome in experiment [6] was inactive.

For the molecule `CCCOC(C)(OCCC)C(Cl)Cl`, the result in experiment [7], in experiment [6] and in experiment [10] was inactive. In addition, the Activity in experiment [4] was 63%.

Turning to `CC1(C)COC(C)(C(Cl)Cl)OC1`, the outcome in [7], in experiment [4] and in experiment [9] was Active. Further, in experiment [6], the outcome was inactive.

Regarding `CC1(C(Cl)Cl)OCCCCCO1`, the outcome in [7], in [4] and in experiment [9] was Active. Further, in experiment [6], the result was inactive.

Turning to `ClC(Cl)C1OCCCCCO1`, the Activity in experiment [4] worked out at 24%. In addition, the “fold change (FC)” value in experiment [11] was 2. For the same molecule, in experiment [5], the outcome was Active. Also, in [6], the outcome was inactive.

As for `CCCOC(OCCC)C(Cl)Cl`, the Activity in [4] is listed as 24%. Besides, the result in experiment [6] was inactive.

As for `ClC(Cl)C1(c2ccccc2)OCCO1`, the “fold change (FC)” value in experiment [7] and in experiment [10] was >2 in each case. The outcome in [4] and in [9] was Active. Further, the outcome in experiment [6] was inactive.

For `CCOCN(C(=O)CCl)c1c(C)cccc1CC`, the result in [1] and in experiment [2] was Active.

`CC(C)COC(OCC(C)C)C(Cl)Cl`: the Activity in experiment [4] was 24%. The outcome in experiment [6] was inactive.

Regarding `CC1(C(Cl)Cl)OCCO1`, the outcome in experiment [7] and in experiment [9] was Active. For the same molecule, the Activity in experiment [4] came to 64%. For the same molecule, the “fold change (FC)” value is 3.64 in [1] and 3.93 in [2]. Further, in experiment [6], the result was inactive.

On to `CCOC(CCl)OCC` [MONOCHLOROACETAL], for which the result in [7] and in [12] was Active. Also, the Activity in experiment [4] amounted to 24%.

`CCOC(OCC)C(Cl)Cl`: the Activity in experiment [4] is 24%. Moreover, the result in experiment [12] and in [9] was Active. The result in experiment [6] was inactive.

Regarding `CCCCOC(OCCCC)C(Cl)Cl`, the Activity in [4] was 24%. In addition, in experiment [6], the result was inactive.

Regarding `CCCCOC(C)(OCCCC)C(Cl)Cl`, the outcome in [6] was inactive.

With `ClC(Cl)C1OCCCCCCO1`, the Activity in experiment [4] turned out to be 24%. The “fold change (FC)” value in experiment [11] is 4. For the same molecule, in [6], the result was inactive.

On to `C=CCN(CC=C)C(=O)CBr`, for which the result in experiment [1] and in experiment [2] was Active. Further, in experiment [3], the result was inactive.

With `CC1(C)COC(C(Cl)Cl)OC1`, in experiment [4], the Activity was 24%. Also, the outcome in experiment [5] was Active. Further, in [6], the result was inactive.

As to `C=CCNC(=O)CCl` [N-ALLYL-2-CHLOROACETAMIDE], the “fold change (FC)” value in [7] and in experiment [10] was 2.25 each time. Moreover, the Activity in experiment [4] is listed as 48%. Further, the outcome in experiment [3] was inactive.

On to `CC1(C(Cl)Cl)OCCCO1`, for which the outcome in experiment [7] and in experiment [9] was Active. For the same molecule, in experiment [4], the Activity is listed as 68%. The outcome in experiment [6] was inactive.

For the molecule `CCOC(CBr)OCC` [BROMOACETAL], the outcome in [7] and in experiment [12] was Active. The Activity in [4] was determined as 60%. The “fold change (FC)” value in [2] amounted to 3.76.

Source of the values: ChEMBL document CHEMBL3044703, “Safening efficacy of halogenated acetals, ketals and amides and relationship between the structure and effect on glutathione and glutathione S-transferases in maize” (2007).
